Test results reported in patent US10208033B2, “β-carboline, dihydro-β-carboline and tetrahydro-β-carboline alkaloid derivatives and preparation methods same and use in aspects of preventing and treating plant viruses, fungicides and insecticides” (NANKAI UNIVERSITY, priority 2013, dated 2019).
Counter-ions that a name gives are not always drawn.

Key:
[1] = test system: tobacco mosaic virus (TMV); assay: Anti-TMV in vitro effect (half-leaf soaking); format: cell-based, tobacco mosaic virus (host Nicotiana tabacum L.cv.Xanthi NN); details: Tobacco mosaic virus, read-out: Relative inhibition rate (%) In vitro activity; for inhibition at 100 µg/mL: treatment dose 100 μg/mL; for inhibition at 500 µg/mL: treatment dose 500 μg/mL
Cercospora arachidicola = assay: Fungicidal (bactericidal) activity in vitro, PDA colony diameter; format: cell-based; details: Mycosphaerella arachidis, 96 h; 50 mg/kg
corn borers = assay: whole plant or invertebrate; details: read-out: Corn borer Mortality (%)
Rhizoctonia solani = assay: Fungicidal (bactericidal) activity in vitro, PDA colony diameter; format: cell-based; details: Rhizoctonia solani, 96 h; 50 mg/kg
[2] = test system: tobacco mosaic virus (TMV); assay: Anti-TMV in vivo therapeutic effect; parameters: species or system tobacco mosaic virus (host Nicotiana tabacum L.cv.Xanthi NN); details: Tobacco mosaic virus, read-out: Relative inhibition rate (%) In vivo therapy; for inhibition at 100 µg/mL: treatment dose 100 μg/mL; for inhibition at 500 µg/mL: treatment dose 500 μg/mL
[3] = test system: Colletotrichum orbiculare; assay: Fungicidal (bactericidal) activity in vitro, PDA colony diameter; format: cell-based; details: Colletotrichum orbiculare, 96 h; 50 mg/kg
[4] = test system: tobacco mosaic virus (TMV); assay: Anti-TMV in vivo protective effect; parameters: species or system tobacco mosaic virus (host Nicotiana tabacum L.cv.Xanthi NN); details: Tobacco mosaic virus, read-out: Relative inhibition rate (%) In vivo protection; for inhibition at 100 µg/mL: treatment dose 100 μg/mL; for inhibition at 500 µg/mL: treatment dose 500 μg/mL
[5] = test system: tobacco mosaic virus (TMV); assay: Anti-TMV in vivo inactivation; parameters: species or system tobacco mosaic virus (host Nicotiana tabacum L.cv.Xanthi NN); details: Tobacco mosaic virus, read-out: Relative inhibition rate (%) In vivo inactivation; for inhibition at 100 µg/mL: treatment dose 100 μg/mL; for inhibition at 500 µg/mL: treatment dose 500 μg/mL
Bipolaria maydis = assay: organism not typed; format: cell-based; details: read-out: Bactericidal activity (%) Bipolaria maydis
Sclerotinia scleotiorum = assay: Fungicidal (bactericidal) activity in vitro, PDA colony diameter; format: cell-based; details: Sclerotinia, 96 h; 50 mg/kg
mosquito larvae = assay: whole plant or invertebrate; details: Culex pipiens, 24 h, read-out: Mosquito larvae Mortality (%)
Summary of the method: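 Compound dissolved in acetone (or other solvent) to a 1000 ppm stock and diluted in water to 5 ppm. Ten Culex pipiens pallens larvae at the start of the fourth instar, laboratory-reared, added per beaker; solvent-only aqueous control.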

armyworms = format: in vivo; details: concentration 600 mg/kg
potato late blight = assay: microbe, parasite or virus in culture; format: cell-based; details: Phytophthora infestans, 96 h, read-out: Bactericidal activity (%) potato late blight
Macrophoma kawatsukai = assay: Fungicidal (bactericidal) activity in vitro, PDA colony diameter; format: cell-based; details: 50 mg/kg
Botrytis cinerea = assay: as above; format: cell-based; details: Botrytis cinerea, 96 h; 50 mg/kg
cucumber fusarium wilt = assay: as above; format: cell-based; details: Fusarium, 96 h; 50 mg/kg
Rhizoctonia cereali = assay: as above; format: cell-based; details: Rhizoctonia, 96 h; 50 mg/kg
Fusarium fujikuroi = assay: as above; format: cell-based; details: Fusarium fujikuroi, 96 h; 50 mg/kg
cotton bollworms = assay: whole plant or invertebrate; details: Helicoverpa armigera, in Gossypium hirsutum, read-out: Cotton bollworm Mortality (%)
Procedure: Experimental method of cotton bollworms: feed and drug mixing method: measure 3 mL of prepared solution and add it to about 27 g of newly prepared feed, thereby obtaining needed concentration through dilution by 10 times.

Phytophthora capsici = assay: Fungicidal (bactericidal) activity in vitro, PDA colony diameter; format: cell-based; details: Phytophthora capsici, 96 h; 50 mg/kg
Fusarium graminearumt = assay: microbe, parasite or virus in culture; format: cell-based; details: Fusarium, 96 h, read-out: Bactericidal activity (%) Fusarium graminearumt
Alternaria solani = assay: Fungicidal (bactericidal) activity in vitro, PDA colony diameter; format: cell-based; details: Alternaria solani, 96 h; 50 mg/kg

SMILES	inhibition at 100 µg/mL [1] [%]	inhibition at 500 µg/mL [1] [%]	inhibition of growth at 50 mg/kg (Cercospora arachidicola) [%]	mortality at 600 mg/kg (corn borers) [%]	inhibition of growth at 50 mg/kg (Rhizoctonia solani) [%]	inhibition at 100 µg/mL [2] [%]	inhibition at 500 µg/mL [2] [%]	inhibition of growth at 50 mg/kg [3] [%]	inhibition at 100 µg/mL [4] [%]	inhibition at 500 µg/mL [4] [%]	inhibition at 100 µg/mL [5] [%]	inhibition at 500 µg/mL [5] [%]	inhibition at 50 mg/kg (Bipolaria maydis) [%]	inhibition of growth at 50 mg/kg (Sclerotinia scleotiorum) [%]	mortality at 10 mg/kg (mosquito larvae) [%]	Armyworm Mortality (%) (armyworms)	inhibition of growth at 50 mg/kg (potato late blight) [%]	inhibition at 50 mg/kg (Macrophoma kawatsukai) [%]	inhibition of growth at 50 mg/kg (Botrytis cinerea) [%]	inhibition of growth at 50 mg/kg (cucumber fusarium wilt) [%]	other results
Cc1nccc2c1[nH]c1c([N+](=O)[O-])cccc12 [Ia-4]	0	30	53.9	5	42.1	0	33.3	42.9	5.8	30.1	10.5	36.4	36.4	29.4	30	10	27.3	35.7	18.2	38.5	inhibition of growth at 50 mg/kg (Rhizoctonia cereali): 50%; inhibition of growth at 50 mg/kg (Fusarium fujikuroi): 21.4%; mortality at 600 mg/kg (cotton bollworms): 10%; inhibition of growth at 50 mg/kg (Phytophthora capsici): 9.4%; inhibition of growth at 50 mg/kg (Fusarium graminearumt): 42.9%; inhibition of growth at 50 mg/kg (Alternaria solani): 15.8%
Cc1nccc2c1[nH]c1cc(OC(=O)NC(C)C)ccc12 [Ia-5, isopropylamino formate (1-methylpyridino [3,4-b]indol-7)-ester]	0	31.3	53.9	10	6.6	0	32.7	39.3	5.8	40.3	0	29.5	22.7	9.8	30	10	18.2	2.4	0	34.6	inhibition of growth at 50 mg/kg (Rhizoctonia cereali): 36.8%; inhibition of growth at 50 mg/kg (Fusarium fujikuroi): 14.3%; mortality at 600 mg/kg (cotton bollworms): 15%; inhibition of growth at 50 mg/kg (Phytophthora capsici): 25%; inhibition of growth at 50 mg/kg (Fusarium graminearumt): 23.8%; inhibition of growth at 50 mg/kg (Alternaria solani): 21.1%
Cc1nccc2c1[nH]c1cc(OC(=O)[C@@H](NC(=O)OCc3ccccc3)C(C)C)ccc12 [Ia-9]	0	20.7	61.5	5	52.6	0	12.5	50	0	19.6	0	13.6	36.4	13.7	25	5	45.5	78.6	51.5	38.5	inhibition of growth at 50 mg/kg (Rhizoctonia cereali): 84.2%; inhibition of growth at 50 mg/kg (Fusarium fujikuroi): 21.4%; mortality at 600 mg/kg (cotton bollworms): 20%; inhibition of growth at 50 mg/kg (Phytophthora capsici): 50%; inhibition of growth at 50 mg/kg (Fusarium graminearumt): 35.7%; inhibition of growth at 50 mg/kg (Alternaria solani): 36.8%
Cc1nc(C(=O)O)cc2c1[nH]c1ccccc12 [Ia-11, 1-methyl-pyridino [3,4-b] indol-3-formic acid]	0	32.5	50	10	42.9	0	29.6	38.1	0	21.4	0	27.3	21.1	72	50	10	25	82.4	63.6	19.1	inhibition of growth at 50 mg/kg (Rhizoctonia cereali): 53.1%; inhibition of growth at 50 mg/kg (Fusarium fujikuroi): 35.7%; mortality at 600 mg/kg (cotton bollworms): 10%; inhibition of growth at 50 mg/kg (Phytophthora capsici): 60.6%; inhibition of growth at 50 mg/kg (Fusarium graminearumt): 35.7%; inhibition of growth at 50 mg/kg (Alternaria solani): 33.3%
